Where two headings read alike, the source gives them in different places.
Key:
[1] = target: iAChSnFR (early version; iAChSnFR0.6 in Figure S2A); conditions: n = 3
[2] = target: hSERT (Homo sapiens, UniProt P31645); assay: oscillating stimulus transporter assay; assay type: cell-based
[3] = target: iSeroSnFR; assay type: binding, Thermoanaerobacter sp. X513; conditions: for Kd: read-out: apparent Kd, pH 7.4
[4] = test system: electrically evoked 5-HT release in dorsal striatum slices; parameters: species or system mouse

Chain of hSERT (P31645 whole entry): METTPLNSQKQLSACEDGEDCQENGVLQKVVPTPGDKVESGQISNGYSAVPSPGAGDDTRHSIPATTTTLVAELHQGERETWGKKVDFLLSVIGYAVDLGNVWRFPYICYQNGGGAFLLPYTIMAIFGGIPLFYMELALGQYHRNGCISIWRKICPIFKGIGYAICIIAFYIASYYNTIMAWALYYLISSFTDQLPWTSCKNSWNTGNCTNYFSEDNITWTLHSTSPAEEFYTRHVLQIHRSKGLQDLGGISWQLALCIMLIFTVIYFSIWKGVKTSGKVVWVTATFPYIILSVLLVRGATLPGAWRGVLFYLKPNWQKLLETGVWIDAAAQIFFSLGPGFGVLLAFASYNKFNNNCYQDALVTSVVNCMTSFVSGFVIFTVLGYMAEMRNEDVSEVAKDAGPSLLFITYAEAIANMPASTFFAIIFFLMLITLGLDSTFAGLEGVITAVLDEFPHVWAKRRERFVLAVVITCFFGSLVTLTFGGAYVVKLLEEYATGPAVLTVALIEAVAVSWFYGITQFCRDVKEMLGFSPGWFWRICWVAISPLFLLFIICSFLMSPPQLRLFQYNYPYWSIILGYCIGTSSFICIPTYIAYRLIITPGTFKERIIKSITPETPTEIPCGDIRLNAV

`NCCc1c[nH]c2ccc(O)cc12` [5-HT, serotonin (5-hydroxytryptamine)] was tested, and the Kd [1] was greater than 1000 µM.

With `CNC(C)Cc1ccc2c(c1)OCO2` (stereo not shown) [MDMA, 3,4-methyl enedioxy methamphetamine] the “enhancement in 5-HT efflux” value [2] was 2 fold.

In the case of `CCCCCCCCCCCCCC(=O)O[C@@H]1[C@@H](C)[C@@]2(O)[C@@H](C=C(CO)C[C@]3(O)C(=O)C(C)=C[C@@H]23)[C@@H]2C(C)(C)[C@]12OC(C)=O` [PMA, phorbol 12-myristate 13-acetate], the “effect on 5-HT transport rate” value ([2]; 400 nM) is reported as “slow decrement in transport rate over ~40 minutes”.

`COC(=O)[C@H]1[C@@H](OC(=O)c2ccccc2)C[C@@H]2CC[C@H]1N2C` [cocaine] was tested, and the “effect on 5-HT transport” value [2] was “reduced”.

For `NCCc1ccc(O)c(O)c1` [dopamine], the Kd [3] was 5600 µM.

For `NC1=N[C@H](O)[C@H]2[C@H]3O[C@]4(O)O[C@@H]([C@@H](O)[C@@]2(N1)[C@@H]4O)[C@]3(O)CO` [tetrodotoxin], the “effect on electrically evoked fluorescence transients” value [4] was “completely abolished”.

`NCCc1c[nH]c2ccccc12` [tryptamine] was tested, and the “times weaker affinity than 5-HT” value ([3]; purified iSeroSnFR) was 8 times and the Kd ([3]; purified iSeroSnFR 100 nM) was 2400 µM.

`N#Cc1ccc2[nH]cc(CCCCN3CCN(c4ccc5oc(C(N)=O)cc5c4)CC3)c2c1` [vilazodone] was tested, and the “effect on 5-HT transport” value ([2]; concentration not given) was “caused transport function to rapidly disappear” and the “recovery of transport after washout” value ([2]; washouts of >20 minutes) was “did not return to baseline”.

— article PMC8025677 (Cell, 2020)
